Source: ChEMBL document CHEMBL1132118, “Structure-based design, synthesis, and biological evaluation of irreversible human rhinovirus 3C protease inhibitors. 3. Structure-activity studies of ketomethylene-containing peptidomimetics” (J Med Chem, 1999)

Experiments:
Format in all cases: functional
[1] = The 50% cytotoxic concentration was calculated as the concentration of the drug that decreased the percentage of formazan produced in drug-treated,uninfected cells to 50% of that produced in drug free uninfected cells on serotype 14.
[2] = biological target: T1, Human rhinovirus A protease (Human rhinovirus sp.) (UniProt Q4U254); assay: The EC90 was calculated as the concentration of drug that increased the percentage of formazan production in drug treated, virus infected cells to 50% of that produced by drug free uninfected cells on human rhinovirus-10.
T1 sequence (whole entry): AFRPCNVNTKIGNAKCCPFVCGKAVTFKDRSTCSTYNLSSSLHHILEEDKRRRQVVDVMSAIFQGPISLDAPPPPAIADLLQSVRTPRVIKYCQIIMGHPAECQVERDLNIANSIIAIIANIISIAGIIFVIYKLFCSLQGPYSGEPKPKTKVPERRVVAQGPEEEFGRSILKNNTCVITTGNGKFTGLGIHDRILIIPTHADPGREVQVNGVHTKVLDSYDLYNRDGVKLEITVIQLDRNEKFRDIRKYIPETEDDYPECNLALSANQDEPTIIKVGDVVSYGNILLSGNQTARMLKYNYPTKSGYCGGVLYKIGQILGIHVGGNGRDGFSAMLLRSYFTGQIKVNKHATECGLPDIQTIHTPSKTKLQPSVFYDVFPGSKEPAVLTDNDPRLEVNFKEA

[3] = biological target: T1, Human rhinovirus A protease (Human rhinovirus sp.); assay: The EC90 was calculated as the concentration of drug that increased the percentage of formazan production in drug treated, virus infected cells to 50% of that produced by drug free uninfected cells on human rhinovirus-14.
[4] = biological target: T1, Human rhinovirus A protease (Human rhinovirus sp.); assay: The EC90 was calculated as the concentration of drug that increased the percentage of formazan production in drug treated, virus infected cells to 50% of that produced by drug free uninfected cells on human rhinovirus-2.
[5] = biological target: T1, Human rhinovirus A protease (Human rhinovirus sp.); assay: The EC90 was calculated as the concentration of drug that increased the percentage of formazan production in drug treated, virus infected cells to 50% of that produced by drug free uninfected cells on human rhinovirus-1A.

| SMILES | CC50 [1] | also measured |
| --- | --- | --- |
| CCOC(=O)/C=C/[C@H](CCC(N)=O)NC(=O)[C@@H](CC(=O)[C@@H](NC(=O)SC1CCCC1)C(C)C)Cc1ccc(C(F)(F)F)cc1 | > 100000 nM | – |
| CCOC(=O)/C=C/[C@H](CCC(N)=O)NC(=O)[C@@H](CC(=O)[C@@H](NC(=O)SC1CCCC1)C(C)C)Cc1ccc(C)cc1 | > 100000 nM | – |
| CCOC(=O)/C=C/[C@H](CCC(N)=O)NC(=O)[C@@H](CC(=O)[C@H](Cc1ccccc1)NC(=O)SC1CCCC1)Cc1ccc(F)cc1 | > 100000 nM | – |
| CCOC(=O)/C=C/[C@H](CCC(N)=O)NC(=O)[C@@H](CC(=O)[C@H](Cc1ccccc1)NC(=O)SC1CCCC1)Cc1ccc(C)cc1 | > 100000 nM | – |
| CCOC(=O)/C=C/[C@H](CCC(N)=O)NC(=O)[C@@H](CC(=O)[C@@H](NC(=O)SC1CCCC1)C(C)C)Cc1ccccc1 | > 100000 nM | – |
| CCOC(=O)/C=C/[C@H](CCC(N)=O)NC(=O)[C@@H](CC(=O)[C@@H](NC(=O)SCc1ccccc1)C(C)C)Cc1ccccc1 | > 100000 nM | – |
| CCOC(=O)/C=C/[C@H](CCC(N)=O)NC(=O)[C@H](Cc1ccc(F)cc1)NC(=O)[C@@H](NC(=O)SC1CCCC1)C(C)C | – | EC90 [2]: 2500 nM; EC90 [3]: 1800 nM; EC90 [4]: 5400 nM; EC90 [5]: 2500 nM |
| CCOC(=O)/C=C/[C@H](CCC(N)=O)NC(=O)[C@@H](CC(=O)[C@H](CC(C)C)NC(=O)SC1CCCC1)Cc1ccc(C)cc1 | > 100000 nM | – |
| CCOC(=O)/C=C/[C@H](CCC(N)=O)NC(=O)[C@@H](CC(=O)[C@H](CC(C)C)NC(=O)SCc1ccccc1)Cc1ccccc1 | > 100000 nM | – |
| CCOC(=O)/C=C/[C@H](CCC(N)=O)NC(=O)[C@H](Cc1ccccc1)NC(=O)[C@H](CC(C)C)NC(=O)OCc1ccccc1 | > 320000 nM | – |
| CCOC(=O)/C=C/[C@H](CCC(N)=O)NC(=O)[C@@H](CC(=O)[C@H](CC(C)C)NC(=O)SC1CCCC1)Cc1ccccc1 | > 100000 nM | – |
| CCOC(=O)/C=C/[C@H](CCC(N)=O)NC(=O)[C@@H](CC(=O)[C@@H](NC(=O)c1cc(C)on1)C(C)C)Cc1ccc(F)cc1 | – | EC90 [2]: 790 nM; EC90 [3]: 320 nM |
| CCOC(=O)/C=C/[C@H](CCC(N)=O)NC(=O)[C@@H](CC(=O)[C@H](CC(C)C)NC(=O)OCc1ccccc1)Cc1ccccc1 | > 320000 nM | – |
| CCOC(=O)/C=C/[C@H](CCC(N)=O)NC(=O)[C@@H](CC(=O)[C@@H](NC(=O)SC1CCCC1)C(C)(C)C)Cc1ccccc1 | > 100000 nM | – |
| CCOC(=O)/C=C/[C@H](CCC(N)=O)NC(=O)[C@@H](CC(=O)[C@@H](NC(=O)SC1CCCC1)C(C)C)Cc1ccc(F)cc1 | > 100000 nM | EC90 [2]: 250 nM; EC90 [3]: 100 nM; EC90 [4]: 250 nM; EC90 [5]: 200 nM |
| CCOC(=O)/C=C/[C@H](CCC(N)=O)NC(=O)[C@@H](CC(=O)[C@H](CC(C)C)NC(=O)SC1CCCC1)Cc1ccc(F)cc1 | > 100000 nM | – |
